Structures are written as SMILES.

The source of these data is publication PMC11775380, “Discovery of Novel Nav1.7-Selective Inhibitors with the 1H-Indole-3-Propionamide Scaffold for Effective Pain Relief” (Research, 2025).

One assay addresses T1, hNav1.8 (Homo sapiens, UniProt Q9Y5Y9).
T1 construct: expressed in transfected cells; host or cells: ND7/23
The experiment in a line: Subtype selectivity, patch clamp (ND7/23 cells). Format: cell-based. The following applies: 1 μM. How it is done: VGSC inhibitors required credible subtype selectivity to void side effects caused by binding to nontarget subtypes. At a concentration of 1 μM, the inhibitory rates of WN2-R on hNav1.2, hNav1.3, hNav1.4, hNav1.5, mNav1.6, and hNav1.8 were determined (n = 3 to 6, Fig. 7A). […] To further evaluate the drug safety profile, high-dose acute toxicity experiments were conducted. Mice were administered a high dose of 30 mg/kg WN2-R through i.p. administration. The rotarod test, forced-swim test, and open field test were used to explore the effect of high-dose WN2-R on the motor ability of mice (n = 4). The rotarod test evaluated the drug's effect on motor coordination, the forced-swim test examined its impact on the overall motor system, and the open field test assessed the drug's influence on the motor and nervous systems. […]
Whole-cell patch-clamp recordings were conducted at 25 ± 2 °C, utilizing an EPC 10USB patch-clamp amplifier (HEKA Elektronik, Lambrecht, Germany). […] IC50 values were determined in HEK293T or ND7/23 cell lines by voltage clamping at −80 mV, followed by stepping to the V1/2 of inactivation for 8 s to facilitate compound binding.

Assay [1] concerns formalin-induced acute inflammatory pain model in mice. In words: Formalin-induced inflammation pain model. Format: in vivo, ICR mice. The following applies: 30 min before formalin. How it is done: The formalin-induced acute inflammatory pain model in mice, achieved through the plantar injection of formalin aqueous solution, is another widely used model for acute inflammatory pain. This model comprises 2 stages: an initial phase ([…]) where pain is triggered by formalin's direct stimulation of nociceptive receptors on sensory neurons, followed by a second phase (15 to 40 min) characterized by persistent inflammatory pain due to tissue damage. Similarly, both i.g. and i.m. methods were used to evaluate the effect of WN2-R in this model (n = 6) (Fig. 6B and I). […] These findings were consistent across repeated experiments.
To induce the pain response, 20 μl of formalin (5%, w/v) was injected subcutaneously into the right hind paw of ICR mice (3 male and 3 female). Prior to the formalin injection, mice were preadministered with WN2-R (5 mg/kg i.g., 1 mg/kg i.m.), PF05089771 (5 mg/kg i.g., 1 mg/kg i.m.), or saline 30 min beforehand. The duration of licking/biting the injected paw was recorded every 5 min, commencing immediately after the formalin injection and continuing for 40 min. Phase I and II in this assay corresponded to the nociceptive response observed between 0 and 5 min and between 10 and 40 min, respectively.

For assay [2], the system named is CFA inflammatory pain model of mice. The experiment in a line: CFA-induced inflammatory (chronic) pain model. The note with it: for Paw withdrawal threshold (PWT) at 1.5 h: 1.5 h post drug, 24 h after CFA. Format: in vivo, ICR mice. How it is done: The chronic pain model of mice was often used to simulate persistent pain in humans. In this model, chronic persistent pain was induced by injecting complete Freund’s adjuvant (CFA) into the right hind foot of mice. […] The chronic analgesic potential of WN2-R was evaluated using both i.g. and i.m. methods (n = 4). When administered by i.g., the PWTs of the WN2-R group and the PF-05089771 group reached their peak at 1.5 and 1 h after administration, respectively, and subsequently declined to the same level as the saline group at 2.5 h (Fig. 6D). […] When administered i.m., both the WN2-R and PF-05089771 groups reached peak PWTs at 1.5 h, and declined to the saline group level at 3 h (Fig. 6K). […] The mechanical allodynia of ICR mice (2 male and 2 female) was assessed prior to model construction using von Frey fibers according to the up–down method. Mice with paw withdraw thresholds (PWTs) remarkably deviating from the mean value were excluded from further experiments. Subsequently, 15 μl of CFA was unilaterally injected into the intraplantar surface of the right hind paw of each mice. After 24 h, the PWTs of the mice were assessed. During the i.g. administration of drugs or saline, PWTs were measured 0, 0.5, 1, 1.5, 2, and 2.5 h post drugs/saline administration. Similarly, during i.m. administration, PWTs were measured at 0, 0.5, 1, 1.5, 2, 2.5, and 3 h post drugs/saline administration.

T1 sequence (Q9Y5Y9 whole entry): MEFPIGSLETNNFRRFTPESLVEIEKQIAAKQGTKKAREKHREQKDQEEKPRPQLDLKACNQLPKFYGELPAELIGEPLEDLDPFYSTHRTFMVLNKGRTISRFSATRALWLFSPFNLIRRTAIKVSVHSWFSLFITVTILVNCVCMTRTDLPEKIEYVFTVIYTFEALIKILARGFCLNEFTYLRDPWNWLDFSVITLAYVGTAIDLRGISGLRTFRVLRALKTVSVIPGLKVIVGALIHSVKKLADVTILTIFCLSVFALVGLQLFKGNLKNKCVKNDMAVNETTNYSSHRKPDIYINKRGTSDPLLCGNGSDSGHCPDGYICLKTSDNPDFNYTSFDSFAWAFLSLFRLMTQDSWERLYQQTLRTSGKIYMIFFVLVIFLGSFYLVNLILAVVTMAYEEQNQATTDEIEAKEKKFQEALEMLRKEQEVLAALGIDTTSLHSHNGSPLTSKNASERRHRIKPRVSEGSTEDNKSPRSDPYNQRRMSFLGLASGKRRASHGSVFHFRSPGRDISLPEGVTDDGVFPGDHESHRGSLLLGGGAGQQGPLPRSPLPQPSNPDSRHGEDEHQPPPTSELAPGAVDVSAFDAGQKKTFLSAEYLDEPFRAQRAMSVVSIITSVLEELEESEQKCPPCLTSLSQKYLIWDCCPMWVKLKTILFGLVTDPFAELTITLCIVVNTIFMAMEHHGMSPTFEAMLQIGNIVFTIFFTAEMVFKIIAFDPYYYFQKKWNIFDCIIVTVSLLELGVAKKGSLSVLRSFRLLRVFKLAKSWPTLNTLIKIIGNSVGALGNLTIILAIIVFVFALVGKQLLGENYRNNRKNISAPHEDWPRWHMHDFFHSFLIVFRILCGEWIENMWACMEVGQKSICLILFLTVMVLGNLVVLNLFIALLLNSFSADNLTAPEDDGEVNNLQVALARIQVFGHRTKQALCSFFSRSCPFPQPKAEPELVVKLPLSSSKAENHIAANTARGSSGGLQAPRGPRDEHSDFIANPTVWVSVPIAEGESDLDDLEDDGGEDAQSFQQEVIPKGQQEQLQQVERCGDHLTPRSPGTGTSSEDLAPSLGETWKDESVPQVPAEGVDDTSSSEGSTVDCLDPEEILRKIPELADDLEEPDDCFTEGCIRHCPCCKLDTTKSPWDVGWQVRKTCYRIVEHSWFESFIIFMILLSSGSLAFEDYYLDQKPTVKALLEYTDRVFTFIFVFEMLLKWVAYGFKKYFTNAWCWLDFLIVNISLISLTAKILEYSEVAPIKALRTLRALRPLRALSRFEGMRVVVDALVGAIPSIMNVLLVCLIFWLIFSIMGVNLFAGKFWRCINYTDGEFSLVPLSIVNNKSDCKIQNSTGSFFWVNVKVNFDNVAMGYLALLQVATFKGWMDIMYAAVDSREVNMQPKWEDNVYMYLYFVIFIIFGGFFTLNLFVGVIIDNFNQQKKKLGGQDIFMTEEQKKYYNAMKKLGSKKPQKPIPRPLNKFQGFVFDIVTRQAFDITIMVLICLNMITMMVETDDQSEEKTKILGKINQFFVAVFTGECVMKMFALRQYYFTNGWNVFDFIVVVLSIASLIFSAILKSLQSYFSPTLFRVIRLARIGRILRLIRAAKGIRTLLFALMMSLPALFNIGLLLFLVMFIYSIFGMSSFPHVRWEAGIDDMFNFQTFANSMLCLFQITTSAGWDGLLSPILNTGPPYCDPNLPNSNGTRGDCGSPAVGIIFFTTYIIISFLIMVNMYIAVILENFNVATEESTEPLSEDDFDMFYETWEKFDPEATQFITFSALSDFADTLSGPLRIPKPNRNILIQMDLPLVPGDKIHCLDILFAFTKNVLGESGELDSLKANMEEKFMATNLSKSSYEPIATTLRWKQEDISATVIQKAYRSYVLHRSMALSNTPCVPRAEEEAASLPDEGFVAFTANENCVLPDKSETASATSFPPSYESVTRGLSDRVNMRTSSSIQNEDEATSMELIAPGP

For `Cc1ccc(Cn2cc([C@H](CC(=O)NCCN(C)C)c3ccc(F)cc3)c3ccccc32)cc1` [WN2-R], the “Inhibitory rate on hNav1.8” value at hNav1.8 is given as “much lower than that on Nav1.7”. Besides, in assay [1] (i.g., 5 mg/kg), the “Licking time in phase I vs saline” value was “significantly reduced licking time” and the “Licking time in phase II vs saline” value is listed as “failed to significantly reduce licking time”. In assay [1] (i.m., 1 mg/kg), the “Licking time in phase I vs saline” value is “significantly reduced licking time” and the “Licking time in phase II vs saline” value is “significantly reduced licking time”. For the same compound, in assay [2] (i.g.), the “Time at which PWT declined to the saline group level” value amounted to 2.5 h, the “Time of peak PWT after administration” value was found to be 1.5 h and the “Paw withdrawal threshold (PWT) at 1.5 h” value worked out at 1.25 g. In assay [2] (i.m.), the “Time at which PWT declined to the saline group level” value is 3 h, the “Time of peak PWT after administration” value came out at 1.5 h and the “Paw withdrawal threshold (PWT) at 1.5 h” value is on record as 1.17 g.
